The supplement of paper PMC4862054

Key:
Assay in all cases: normalised response (% of control), CellTiter-Glo; higher = more viable cells (100 = DMSO, 0 = benzethonium chloride kill control)
Settings in all cases: incubation time: 72 h
MFM-223 = system: MFM-223
Procedure, shortened: (§1)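 CellTox Green fluorescence (485/520 nm) and, after 10 min at room temperature, CellTiter-Glo luminescence were read from breast cancer cell lines incubated 72 h in 384-well plates. Cells were seeded as 20 µl suspension onto compound at 5 concentrations in 10-fold steps over a 10,000-fold range chosen per compound. Each plate was normalised to 0.1 % DMSO (100) and a positive kill control (0). Values are normalised signals, one per concentration.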

MDA-MB-468 = system: MDA-MB-468
Procedure, shortened: as §1

MDA-MB-436 = system: MDA-MB-436
Procedure, shortened: as §1

HCC1143 = system: HCC1143
Procedure, shortened: as §1

BT-549 = system: BT-549
Procedure, shortened: as §1

DU-4475 = system: DU-4475
Procedure, shortened: as §1

CAL-51 = system: CAL-51
Procedure, shortened: as §1

CAL-120 = system: CAL-120
Procedure, shortened: as §1

MDA-MB-231 = system: MDA-MB-231
Procedure, shortened: as §1

MDA-MB-453 = system: MDA-MB-453
Procedure, shortened: as §1

HDQ-P1 = system: HDQ-P1
Procedure, shortened: as §1

BT-474 = system: BT-474
Procedure, shortened: as §1

CAL-85-1 = system: CAL-85-1
Procedure, shortened: as §1

HCC1599 = system: HCC1599
Procedure, shortened: as §1

HCC1937 = system: HCC1937
Procedure, shortened: as §1

SK-BR-3 = system: SK-BR-3
Procedure, shortened: as §1

Hs578T = system: Hs578T
Procedure, shortened: as §1

CAL-148 = system: CAL-148
Procedure, shortened: as §1

MCF-10A = system: MCF-10A
Procedure, shortened: as §1

Row | Compound | normalised response (MFM-223) [%] | normalised response (MDA-MB-468) [%] | normalised response (MDA-MB-436) [%] | normalised response (HCC1143) [%] | normalised response (BT-549) [%] | normalised response (DU-4475) [%] | normalised response (CAL-51) [%] | normalised response (CAL-120) [%] | normalised response (MDA-MB-231) [%] | normalised response (MDA-MB-453) [%] | normalised response (HDQ-P1) [%] | normalised response (BT-474) [%] | normalised response (CAL-85-1) [%] | normalised response (HCC1599) [%] | normalised response (HCC1937) [%] | normalised response (SK-BR-3) [%] | normalised response (Hs578T) [%] | normalised response (CAL-148) [%] | normalised response (MCF-10A) [%]
1 | NS(=O)(=O)OC[C@@H]1C[C@@H](n2ccc3c(N[C@H]4CCc5ccccc54)ncnc32)C[C@@H]1O [Pevonedistat] (1 nM) | 102 | 96.7 | 99.7 | 105 | 99.2 | 94.7 | 79.2 | 100 | 102 | 110 | 100 | 93.6 | 93.9 | 95.9 | 100 | 107 | 99.7 | 106 | 115
2 | c1ccc([C@H]2CN3CCSC3=N2)cc1 [Levamisole] (1 nM) | 106 | 112 | 97.4 | 103 | 106 | 105 | 69.9 | 98.1 | 107 | 112 | 104 | 106 | 99.9 | 106 | 99.4 | 109 | 105 | 113 | 107
3 | O=C1NC(=O)[C@@H](c2cn3c4c(cccc24)CCC3)[C@@H]1c1c[nH]c2ccccc12 [Tivantinib] (0.1 nM) | 103 | 104 | 106 | 97.9 | 104 | 98.8 | 87.5 | 101 | 97.8 | 92.5 | 101 | 102 | 96.2 | 107 | 95.6 | 108 | 103 | 101 | 101
4 | Cn1cncc1[C@@](N)(c1ccc(Cl)cc1)c1ccc2c(c1)c(-c1cccc(Cl)c1)cc(=O)n2C [Tipifarnib] (10 nM) | 95.2 | 94 | 88.7 | 101 | 98.9 | 102 | 121 | 93.1 | 98.6 | 84.6 | 87.7 | 94.4 | 108 | 94.3 | 82.3 | 85.1 | 95.8 | 96.7 | 92.3
5 | NS(=O)(=O)OC[C@@H]1C[C@@H](n2ccc3c(N[C@H]4CCc5ccccc54)ncnc32)C[C@@H]1O [Pevonedistat] (10 nM) | 102 | 97.2 | 96.6 | 102 | 94 | 109 | 77 | 97.8 | 107 | 100 | 95.9 | 114 | 100 | 97.1 | 99.1 | 93.5 | 103 | 109 | 112
6 | O=C(O)CCCc1ccc(N(CCCl)CCCl)cc1 [Chlorambucil] (1 nM) | 102 | 96.9 | 132 | 102 | 102 | 102 | 128 | 97.1 | 101 | 118 | 101 | 102 | 99.4 | 98.4 | 102 | 95.6 | 107 | 96.8 | 100
7 | COc1ccccc1S(=O)(=O)Nc1ccc2c(c1)CN(C)C(=O)N2 [PFI-1] (1 nM) | 101 | 90.8 | 94.8 | 94.2 | 96.5 | 104 | 77.9 | 100 | 103 | 105 | 96 | 93.7 | 98 | 80.6 | 99.2 | 104 | 107 | 107 | 112
8 | Cc1ccc(NC(=O)c2ccc(CN3CCN(C)CC3)cc2)cc1Nc1nccc(-c2cccnc2)n1 [Imatinib] (1 nM) | 108 | 102 | 89.9 | 100 | 102 | 107 | 74.7 | 101 | 105 | 119 | 102 | 99.2 | 102 | 101 | 94.5 | 107 | 103 | 114 | 101
9 | CN1CCN(CCOc2cc(OC3CCOCC3)c3c(Nc4c(Cl)ccc5c4OCO5)ncnc3c2)CC1 [Saracatinib] (10 nM) | 96 | 93.2 | 94.8 | 94.4 | 103 | 103 | 129 | 93.1 | 92.7 | 107 | 118 | 93.5 | 104 | 103 | 97.6 | 113 | 101 | 91.6 | 97.8
10 | c1ccc([C@H]2CN3CCSC3=N2)cc1 [Levamisole] (10 nM) | 110 | 102 | 106 | 99.5 | 99 | 103 | 78.9 | 100 | 99.3 | 117 | 97 | 106 | 95.6 | 99.5 | 103 | 95.1 | 105 | 114 | 110
11 | COc1ccc(-c2ccc3c(N4CCOC[C@@H]4C)nc(N4CCOC[C@@H]4C)nc3n2)cc1CO [AZD8055] (1 nM) | 86.8 | 90.5 | 89.3 | 86.8 | 98.2 | 95.5 | 116 | 90.3 | 95.2 | 104 | 95.2 | 90.8 | 93.5 | 108 | 91 | 87.1 | 93.7 | 89.3 | 85.7
